Results as given in US11000586B2, “Adjuvant composition, vaccine composition containing the same, and method for producing both of them” (TERUMO KABUSHIKI KAISHA, priority 2013, dated 2021).

Legend:
CD80 = test: Evaluation of stimulus to activate innate immune system: expression of CD80 in cultured mice spleen cells (flow cytometry); conditions: solution (5 μL) of sample added alone: peptide, OVA 800 μg/mL, DLPC 1000 nmol/mL, deoxycholic acid 1600 nmol/mL; FIG. 8(B)
Method: The evaluation of stimulus to activate innate immune system was performed as follows.
A spleen was harvested from C57BL/6N mice. The harvested spleen was injected with 500 μL of collagenase solution, 2 mg/mL (prepared with RPMI medium) followed by incubation at 37° C. for 30 minutes. The spleen was made into cell suspension by treatment with BD Falcon cell strainer. The cells underwent hemolysis with RBC lysis buffer, followed by washing with RPMI medium. The cells were dispersed into RPMI medium, and the number of cells was counted. The cells were used for the subsequent procedure.
The cells were inoculated into a 96-well dish such that 1.0×10^6 cells/100 μL. The cell dispersion was given 100 μL of RPMI medium containing a dispersion of different kind, followed by incubation overnight. These procedures were performed by using serum-free RPMI medium.
The cells were recovered and washed with BD stain buffer. Then, the cells underwent incubation together with Anti-CD11cFITC, 0.25 μg/100 μL (4° C. for 30 minutes), so that the cells were stained. After washing, the cells underwent again incubation with Anti-CD80PE, Anti-CD86PE, or Anti-CD40PE, 0.25 μg/100 μL (4° C. for 30 minutes), so that the cells were stained. After washing at least more than three times, the cells were evaluated by using the flow cytometer (Cytomics FC500, Software: CXP software ver. 2).

[1] = tested on: CTL (IFNγ-secreting cells/total CD8 positive cells); test: Evaluation of CTL induction rate, ICS method, after immunization of mice; type: in vivo, C57BL/6N mice; conditions: antigen peptide (80 μg); MPL content 0.227 or equivalent; DLPC, deoxycholic acid (160 nmol); subcutaneous once; FIGS. 3 and 4
Method: Administration (100 μL/head) was performed by subcutaneous injection at one position on the back under anesthesia. […] For evaluation of cell-mediated immunity, administration was performed once and the assay was performed seven days after administration. For evaluation of humoral immunity, administration was performed twice. The second administration was performed 14 days after the first administration, and assay was performed seven days after the second administration.
The mice were sacrificed on the seventh day after the last administration and had its spleen harvested. The spleen was given RPMI medium (3.0 mL) containing 10% serum and then treated by the BD Falcon cell strainer. Thus there was obtained a suspension of cells. […] The cells were dispersed into RPMI medium containing 10% serum. The number of cells was counted. Thus there was obtained a dispersion of spleen cells.
For restimulation of the antigen, 10% serum-containing RPMI medium (100 μL) containing OVA peptide (40 μg/mL) was added, followed by incubation for three hours. Then, BD GolgiPlug was added such that its concentration was 0.2 μL/100 μL. Cell culture was performed overnight. In the case where the restimulation was not given, a 10% serum-containing RPMI medium not containing OVA peptide was used.
After washing, the cells were stained with Anti-CD8aPE (at 4° C. for 30 minutes), followed by washing again. Then the cells were permeabilized with Cytofix/Cytoperm. After washing, the cells were stained with Anti-IFNγFITC (at 4° C. for 30 minutes). […] CTL induction rate was calculated in terms of the ratio between the IFNγ secreting cells and the total CD8 positive cells.
It is known that MPL activates innate immune system and functions as an adjuvant even when used alone. It is also known that MPL induces cell-mediated immunity. Thus, a comparison was made as to the induction of cell-mediated immunity between MPL used alone and MPL used in combination with a pH-sensitive carrier in the form of the adjuvant composition. Each of the MPL and the adjuvant composition is administered together with an antigen. […] The above-mentioned solution or dispersion was subcutaneously administered once to the back of C57BL/6N mice, and the CTL induction rate was obtained according to the ICS method. The CTL induction rate is expressed in terms of the ratio of the IFNγ-secreting cells to the total CD8 positive cells in a specific area which is hardly affected by dead cells (IFNγ-secreting cells/total CD8 positive cells).

[2] = tested on: IFNγ-secreting cells in the spleen; test: ELIspot method (IFNγ spots) after immunization of mice; type: in vivo, C57BL/6N mice; conditions: antigen OVA peptide; DLPC, deoxycholic acid (160 nmol), MPL content 0.227; 2×10^6 cells/well; FIG. 2
Method: Administration (100 μL/head) was performed by subcutaneous injection at one position on the back under anesthesia. The dose of the amphipathic substance was 100 nmol/head; the dose of the pH-sensitive compound was 10 to 640 nmol/head; MPL content was 0.0227 to 22.7 nmol/head; and the amount of the antigen was 3.2 to 400 μg/head. For evaluation of cell-mediated immunity, administration was performed once and the assay was performed seven days after administration. For evaluation of humoral immunity, administration was performed twice. The second administration was performed 14 days after the first administration, and assay was performed seven days after the second administration.
The mice were sacrificed on the seventh day after the last administration and had its spleen harvested. […] The number of cells was counted. […]
The ELIspot method was practiced by using the Mouse IFNγ ELISPOT Set. One day before cell inoculation, the 96-well ELIspot plate was allowed to adsorb the detection antibody attached to the kit, so that the plate was made ready for use. […]
Samples used for comparison include a solution of the peptide alone, a dispersion of the pH-sensitive carrier (DLPC-deoxycholic acid) and the peptide, and a solution of incomplete Freund's adjuvant (IFA) and peptide. […] The number of IFNγ-secreting cells in the spleen was counted, and the CTL induction was evaluated.

SIINFEKL [peptide alone]
fluorescence intensity of CD80PE compared with PBS (CD80): remained unchanged from that in the case where PBS was added
CTL induction rate [1]: 0.14%
number of IFNγ spots compared with untreated sample [2]: equivalent number of spots as the untreated sample
